Legend:
Experiment in all cases: relative viability (nuclei count vs DMSO), 5 days (fraction); higher = more cells survive
NCI-H1944 = tested on: NCI-H1944
In short: (§1)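 Each reported value is a median over duplicate plates. It expresses relative viability: treated-well nuclei count divided by vehicle-well nuclei count. Lung cancer cell lines in 1536-well plates were dosed by pin tool a day after seeding, alone with one drug or with a fixed anchor-drug dose plus five library-drug doses (not always all listed) in √10 steps, and nuclei were counted after 5 days.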

NCI-H2405 = tested on: NCI-H2405
In short: as §1

UMC-11 = tested on: UMC-11
In short: as §1

LU99A = tested on: LU99A
In short: as §1

HCC-78 = tested on: HCC-78
In short: as §1

LOU-NH91 = tested on: LOU-NH91
In short: as §1

LC-2-ad = tested on: LC-2-ad
In short: as §1

RERF-LC-KJ = tested on: RERF-LC-KJ
In short: as §1

NCI-H1395 = tested on: NCI-H1395
In short: as §1

NCI-H1734 = tested on: NCI-H1734
In short: as §1

NCI-H1651 = tested on: NCI-H1651
In short: as §1

NCI-H2228 = tested on: NCI-H2228
In short: as §1

ChaGo-K-1 = tested on: ChaGo-K-1
In short: as §1

NCI-H1793 = tested on: NCI-H1793
In short: as §1

NCI-H3122 = tested on: NCI-H3122
In short: as §1

ABC-1 = tested on: ABC-1
In short: as §1

HCC-366 = tested on: HCC-366
In short: as §1

NCI-H460 = tested on: NCI-H460
In short: as §1

NCI-H2170 = tested on: NCI-H2170
In short: as §1

CAL-12T = tested on: CAL-12T
In short: as §1

PC-3 [JPC-3] = tested on: PC-3 [JPC-3]
In short: as §1

NCI-H2087 = tested on: NCI-H2087
In short: as §1

NCI-H1755 = tested on: NCI-H1755
In short: as §1

For `O=C(O)c1ccc(-c2c[nH]c3ncc(-c4ccccc4)cc23)cc1C1CCCC1` + COc1cccc2cc(-c3nc([C@H]4CC[C@H](C(=O)O)CC4)n4ncnc(N)c34)[nH]c12 [OSI-027] (partner 0.5 µM), the relative viability (NCI-H1944; first compound 0.04 µM) was 0.429, the relative viability (NCI-H1944; first compound 0.1265 µM) was 0.428 and the relative viability (NCI-H1944; first compound 0.4 µM) was 0.345. For the same molecule, the relative viability (NCI-H1944; first compound 1.265 µM) was 0.39, the relative viability (NCI-H2405; first compound 0.04 µM) was 0.653 and the relative viability (NCI-H2405; first compound 0.1265 µM) was 0.626. For the same molecule, the relative viability (NCI-H2405; first compound 0.4 µM) was 0.617, the relative viability (NCI-H2405; first compound 1.265 µM) was 0.605 and the relative viability (UMC-11; first compound 0.04 µM) was 0.482. The relative viability (UMC-11; first compound 0.1265 µM) was 0.547, the relative viability (UMC-11; first compound 0.4 µM) was 0.46 and the relative viability (UMC-11; first compound 1.265 µM) was 0.375. The relative viability (LU99A; first compound 0.04 µM) was 0.314, the relative viability (LU99A; first compound 0.1265 µM) was 0.309 and the relative viability (LU99A; first compound 0.4 µM) was 0.364. The relative viability (LU99A; first compound 1.265 µM) was 0.3, the relative viability (HCC-78; first compound 0.1265 µM) was 0.396 and the relative viability (HCC-78; first compound 0.4 µM) was 0.386. It also gave a relative viability (HCC-78; first compound 1.265 µM) of 0.327, a relative viability (LOU-NH91; first compound 0.04 µM) of 0.743 and a relative viability (LOU-NH91; first compound 0.1265 µM) of 0.824. The relative viability (LOU-NH91; first compound 0.4 µM) was 0.733, the relative viability (LOU-NH91; first compound 1.265 µM) was 0.73 and the relative viability (LC-2-ad; first compound 0.04 µM) was 0.805. It also gave a relative viability (LC-2-ad; first compound 0.1265 µM) of 0.905, a relative viability (LC-2-ad; first compound 0.4 µM) of 0.757 and a relative viability (LC-2-ad; first compound 1.265 µM) of 0.68. It also gave a relative viability (RERF-LC-KJ; first compound 0.04 µM) of 0.561, a relative viability (RERF-LC-KJ; first compound 0.1265 µM) of 0.598 and a relative viability (RERF-LC-KJ; first compound 0.4 µM) of 0.582. The relative viability (RERF-LC-KJ; first compound 1.265 µM) was 0.527, the relative viability (NCI-H1395; first compound 0.04 µM) was 0.627 and the relative viability (NCI-H1395; first compound 0.1265 µM) was 0.773. The relative viability (NCI-H1395; first compound 0.4 µM) was 0.516, the relative viability (NCI-H1395; first compound 1.265 µM) was 0.537 and the relative viability (NCI-H1734; first compound 0.04 µM) was 0.621. The relative viability (NCI-H1734; first compound 0.1265 µM) was 0.701, the relative viability (NCI-H1734; first compound 0.4 µM) was 0.549 and the relative viability (NCI-H1734; first compound 1.265 µM) was 0.512. It also gave a relative viability (NCI-H1651; first compound 0.04 µM) of 0.659, a relative viability (NCI-H1651; first compound 0.1265 µM) of 0.715 and a relative viability (NCI-H1651; first compound 0.4 µM) of 0.67. For the same molecule, the relative viability (NCI-H1651; first compound 1.265 µM) was 0.583, the relative viability (NCI-H2228; first compound 0.04 µM) was 0.557 and the relative viability (NCI-H2228; first compound 0.1265 µM) was 0.568. For the same molecule, the relative viability (NCI-H2228; first compound 0.4 µM) was 0.446, the relative viability (NCI-H2228; first compound 1.265 µM) was 0.355 and the relative viability (ChaGo-K-1; first compound 0.04 µM) was 0.651. It also gave a relative viability (ChaGo-K-1; first compound 0.1265 µM) of 0.595, a relative viability (ChaGo-K-1; first compound 0.4 µM) of 0.532 and a relative viability (ChaGo-K-1; first compound 1.265 µM) of 0.51. It also gave a relative viability (NCI-H1793; first compound 0.04 µM) of 0.312, a relative viability (NCI-H1793; first compound 0.1265 µM) of 0.362 and a relative viability (NCI-H1793; first compound 0.4 µM) of 0.288. The relative viability (NCI-H1793; first compound 1.265 µM) was 0.283, the relative viability (NCI-H3122; first compound 0.04 µM) was 0.973 and the relative viability (NCI-H3122; first compound 0.1265 µM) was 1.12. For the same molecule, the relative viability (NCI-H3122; first compound 0.4 µM) was 0.922, the relative viability (NCI-H3122; first compound 1.265 µM) was 0.717 and the relative viability (ABC-1; first compound 0.04 µM) was 0.468. The relative viability (ABC-1; first compound 0.1265 µM) was 0.511, the relative viability (ABC-1; first compound 0.4 µM) was 0.418 and the relative viability (ABC-1; first compound 1.265 µM) was 0.568. For the same molecule, the relative viability (HCC-366; first compound 0.04 µM) was 1.17, the relative viability (HCC-366; first compound 0.1265 µM) was 0.849 and the relative viability (HCC-366; first compound 0.4 µM) was 0.966. For the same molecule, the relative viability (HCC-366; first compound 1.265 µM) was 0.994, the relative viability (NCI-H460; first compound 0.04 µM) was 0.645 and the relative viability (NCI-H460; first compound 0.1265 µM) was 0.75. For the same molecule, the relative viability (NCI-H460; first compound 0.4 µM) was 0.683, the relative viability (NCI-H460; first compound 1.265 µM) was 0.511 and the relative viability (NCI-H2170; first compound 0.04 µM) was 0.734. For the same molecule, the relative viability (NCI-H2170; first compound 0.1265 µM) was 0.685, the relative viability (NCI-H2170; first compound 0.4 µM) was 0.703 and the relative viability (NCI-H2170; first compound 1.265 µM) was 0.676. The relative viability (CAL-12T; first compound 0.04 µM) was 0.63, the relative viability (CAL-12T; first compound 0.1265 µM) was 0.751 and the relative viability (CAL-12T; first compound 0.4 µM) was 0.671. The relative viability (CAL-12T; first compound 1.265 µM) was 0.547, the relative viability (PC-3 [JPC-3]; first compound 0.04 µM) was 0.784 and the relative viability (PC-3 [JPC-3]; first compound 0.1265 µM) was 0.792. The relative viability (PC-3 [JPC-3]; first compound 0.4 µM) was 0.82, the relative viability (PC-3 [JPC-3]; first compound 1.265 µM) was 0.655 and the relative viability (NCI-H2087; first compound 0.04 µM) was 0.563. It also gave a relative viability (NCI-H2087; first compound 0.1265 µM) of 0.673, a relative viability (NCI-H2087; first compound 0.4 µM) of 0.416 and a relative viability (NCI-H2087; first compound 1.265 µM) of 0.47. The relative viability (NCI-H1755; first compound 0.04 µM) was 0.748, the relative viability (NCI-H1755; first compound 0.1265 µM) was 0.814 and the relative viability (NCI-H1755; first compound 0.4 µM) was 0.724. The relative viability (NCI-H1755; first compound 1.265 µM) was 0.673.
